From paper PMC3403540, “Active Hydrophilic Components of the Medicinal Herb Salvia miltiorrhiza (Danshen) Potently Inhibit Organic Anion Transporters 1 (Slc22a6) and 3 (Slc22a8)” (Evidence-based Complementary and Alternative Medicine : eCAM, 2012)

Biological target: T1, mOat3 (Mus musculus, UniProt O88909)
T1 construct: expressed in transfected cells; host or cells: CHO (Chinese hamster ovary), stably transfected (CHO-mOat3)
T1 sequence (O88909 1-537): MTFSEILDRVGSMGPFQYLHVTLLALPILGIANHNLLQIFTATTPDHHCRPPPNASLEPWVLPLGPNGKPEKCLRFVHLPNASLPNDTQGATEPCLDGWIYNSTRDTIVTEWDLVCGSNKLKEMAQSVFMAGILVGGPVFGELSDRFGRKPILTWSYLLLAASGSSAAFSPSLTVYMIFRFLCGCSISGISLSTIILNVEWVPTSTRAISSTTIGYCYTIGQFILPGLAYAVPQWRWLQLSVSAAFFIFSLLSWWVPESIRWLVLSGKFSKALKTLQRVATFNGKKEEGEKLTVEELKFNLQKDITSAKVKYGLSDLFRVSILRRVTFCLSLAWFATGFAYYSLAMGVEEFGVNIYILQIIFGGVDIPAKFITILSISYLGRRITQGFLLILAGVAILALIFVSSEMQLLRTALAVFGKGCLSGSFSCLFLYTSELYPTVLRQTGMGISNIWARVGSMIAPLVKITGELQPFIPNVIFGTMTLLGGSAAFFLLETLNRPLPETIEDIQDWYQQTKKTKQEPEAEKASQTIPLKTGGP
Experiment: Inhibition of mOat3-mediated [3H]ES uptake in CHO-mOat3 cells (cell accumulation assay)
Format: cell-based, murine
Settings: for Ki / inhibition at 1000 µM: 1 μM [3H]ES; for Ki: 1 min, CHO-mOat3, mean ± S.E.M. (n = 3), from IC50 via Cheng-Prusoff, read-out: Estimated K i for mOat3-mediated transport; for inhibition at 1000 µM: 1 mM (1000 μM) inhibitor, 10 min, CHO-mOat3 cells, read-out: inhibition of mOat3-mediated ES uptake; for mode of inhibition of mOat3-mediated transport: mixed inhibition model, ES substrate
Experimental: Derivation of the stably transfected Chinese hamster ovary (CHO) cell lines expressing mOat1 (CHO-mOat1), mOat3 (CHO-mOat3), and the empty vector (FRT) transfected control cell line (CHO-FRT) was described previously.
Cell transport assay procedures were adapted from those previously published. In brief, 2 × 10^5 cells/well were seeded in 24-well tissue culture plates and grown in the absence of antibiotics for 48 hr. On the day of the experiment, cells were equilibrated with transport buffer for 10 min (500 μL of Hanks' balanced salt solution containing 10 mM HEPES, pH 7.4). […] After incubation, cells were immediately rinsed three times with ice-cold transport buffer, lysed, and analyzed via liquid scintillation counting. Uptake values were normalized to corresponding total protein content in cell lysates as determined by the Bradford method. Substrate accumulation is reported as picomoles of substrate per milligram protein. […] Kinetic calculations were performed using GraphPad Prism Software version 5.0 (GraphPad Software Inc., San Diego, CA, USA). Michaelis constant (K m) values were calculated by nonlinear regression using the Michaelis-Menten model. Mode of inhibition was identified by using mixed model inhibition analysis as follows: (1) Vmax Apparent =Vmax/(1+[I]/(α×Ki)),Km Apparent=Km1+[I]/Ki/(1+[I]/(α×Ki)),Y=Vmax Apparent×x/Km Apparent+x, where V max, K i, and I represent the maximum transport velocity without inhibitor, the inhibition constant generated from the data set under analysis, and the concentration of inhibitor, respectively. In this study, three curves were constructed (no inhibitor, plus two selected inhibitor concentrations) with uptake of substrate plotted as a function of its concentration for each condition. […] The parameter, α, can then be used to determine the mode of inhibition. When α is very large (α > 1), it indicates competitive inhibition. Otherwise, it indicates noncompetitive inhibition (α = 1) or uncompetitive inhibition (0 < α < 1). To estimate K i values, IC50 values were calculated using nonlinear regression and inserted into the Cheng-Prusoff equation: K i = IC50/(1 + [Substrate]/K m). Results were confirmed by repeating all experiments at least three times with triplicate wells for each data point in every experiment.
Figure 2 Inhibition profile of mOat1 and mOat3. […] (5 μM) by LSA, PCA, RMA, SAA, SAB, TSL, and probenecid (1000 μM) was measured in the CHO-mOat1 cells (10 min). […] (b) Inhibition of mOat3-mediated uptake of [^3H]ES (1 μM) by LSA, PCA, RMA, SAA, SAB, TSL, and probenecid (1000 μM) was measured in the CHO-mOat3 cells (10 min). […] Values are mean ± S.D. of triplicate values. ***denotes P < 0.001 as determined by one-way ANOVA followed by Dunnett's t-test.
Figure 5 K i determination for LSA, RMA, and SAA in the CHO-mOat3 cell line. One minute uptake of [^3H]ES (1 μM) in CHO-mOat3 cells was measured in the presence of increasing concentrations (10^−7 to 4 × 10^−4 M) of LSA, RMA, and SAA. Data were corrected for nonspecific background measured in the CHO-FRT cells prior to kinetic analysis. K i values were determined with non-linear regression and the “one-site competition” model using GraphPad Prism software. Graphs shown are from representative experiments with values plotted as mean ± S.D. (n = 3).

| Ki [µM] | inhibition at 1000 µM [%] | mode of inhibition of mOat3-mediated transport | Estimated α value from mixed inhibition model analysis, mOat3 (1 μM ES for 1 min, mean, α > 1 indicates competitive inhibition) | SMILES |
| --- | --- | --- | --- | --- |
| 31.1 ± 7 | > 91 | competitive |  | O=C(/C=C/c1ccc(O)c2c1[C@H](C(=O)O)[C@@H](c1ccc(O)c(O)c1)O2)O[C@H](Cc1ccc(O)c(O)c1)C(=O)O [LSA, lithospermic acid] |
| 4.3 ± 0.2 | > 91 | competitive |  | O=C(/C=C/c1ccc(O)c(O)c1)O[C@H](Cc1ccc(O)c(O)c1)C(=O)O [RMA, rosmarinic acid] |
| 21.3 ± 7.7 | > 91 | competitive | 3.4 × 10^14 | O=C(/C=C/c1ccc(O)c(O)c1/C=C/c1ccc(O)c(O)c1)O[C@H](Cc1ccc(O)c(O)c1)C(=O)O [SAA, salvianolic acid A] |

| SMILES | Ki [µM] | inhibition at 1000 µM [%] | mode of inhibition of mOat3-mediated transport | Estimated α value from mixed inhibition model analysis, mOat3 (1 μM ES for 1 min, mean, α > 1 indicates competitive inhibition) |
| --- | --- | --- | --- | --- |
| O=C(O)C(O)Cc1ccc(O)c(O)c1 (centres unmarked) [TSL, tanshinol] |  | ~55 |  |  |
